12 compounds from US20040044008A1, “Use of therapeutic benzamide derivatives” (priority 2000, published 2004) can be followed below.

The term melting point denotes the temperature, or range, at which the solid turns liquid.

Take `CC(C)=CCN1CCN(c2ccc(NC(=O)c3ccccc3-c3ccc(C(F)(F)F)cc3)cc2)CC1` [Example 46, 4′-Trifluoromethyl-biphenyl-2-carboxylic acid [4-(4-(3-methyl-but-2-enyl)-piperazin-1-yl]-phenyl]-amide]: the melting point is 203 to 205 °C.

`N#Cc1cc(CN2CCN(c3ccc(NC(=O)c4ccccc4-c4ccc(C(F)(F)F)cc4)cc3)CC2)ccc1F` [Example 47, 4′-Trifluoromethyl-biphenyl-2-carboxylic acid [4-(4-(3-cyano-4-fluoro-benzyl)-piperazin-1-yl)-phenyl]-amide] gave a melting point of 168 to 170 °C.

`O=C(Nc1ccc(N2CCN(Cc3ccc4c(c3)OCO4)CC2)cc1)c1ccccc1-c1ccc(C(F)(F)F)cc1` [Example 48, 4′-Trifluoromethyl-biphenyl-2-carboxylic acid [4-(4-(3,4-methylenedioxy-benzyl)-piperazin-1-yl)-phenyl]-amide] yielded a melting point of 189 to 191 °C.

The compound `O=C(Nc1ccc(N2CCN(Cc3cccc([N+](=O)[O-])c3)CC2)cc1)c1ccccc1-c1ccc(C(F)(F)F)cc1` [Example 49, 4′-Trifluoromethyl-biphenyl-2-carboxylic acid [4-(4-(3-nitro-benzyl)-piperazin-1-yl)-phenyl]-amide] gave a melting point of 152 to 154 °C.

On to `NC(=O)c1cccc(CN2CCN(c3ccc(NC(=O)c4ccccc4-c4ccc(C(F)(F)F)cc4)cc3)CC2)c1` [Example 50, 4′-Trifluoromethyl-biphenyl-2-carboxylic acid {4-[4-(3-carbamoyl-benzyl)-piperazin-1-yl]-phenyl}-amide], for which the melting point fell in the range of 199 to 201 °C.

As to `O=C(Nc1ccc(N2CCN(Cc3ccc(F)cc3)CC2)cc1)c1ccccc1-c1ccc(C(F)(F)F)cc1` [Example 52, 4′-Trifluoromethyl-biphenyl-2-carboxylic acid [4-[4-(4-fluoro-benzyl)-piperazin-1-yl]-phenyl]-amide], the melting point is 198 to 200 °C.

Turning to `COC(=O)c1cccc(CN2CCN(c3ccc(NC(=O)c4ccccc4-c4ccc(C(F)(F)F)cc4)cc3)CC2)c1` [Example 55, 4′-Trifluoromethyl-biphenyl-2-carboxylic acid [4-[4-(3-carbomethoxy-benzyl)-piperazin-1-yl]-phenyl]-amide], the melting point is 190 to 192 °C.

On to `O=C(Nc1ccc(N2CCN(Cc3cnccn3)CC2)cc1)c1ccccc1-c1ccc(C(F)(F)F)cc1` [Example 58, 4′-Trifluoromethyl-biphenyl-2-carboxylic acid [4-(4-pyrazin-2-ylmethyl-piperazin-1-yl)-phenyl]-amide], for which the melting point was in the range of 183 to 185 °C.

Consider `Cn1ccnc1CN1CCN(c2ccc(NC(=O)c3ccccc3-c3ccc(C(F)(F)F)cc3)cc2)CC1` [Example 60, 4′-Trifluoromethyl-biphenyl-2-carboxylic acid [4-[4-(1-methyl-1H-imidazol-2-ylmethyl)-piperazin-1-yl)-phenyl]-amide], for which the melting point is 118 to 120 °C.

Compound `CCCN1CCN(c2ccc(NC(=O)c3ccccc3-c3ccc(C(F)(F)F)cc3)cc2)CC1` [Example 65, 4′-Trifluoromethyl-biphenyl-2-carboxylic acid [4-(4-propyl-piperazin-1-yl)-phenyl]-amide] showed a melting point of 207 to 209 °C.

`CC(=O)c1cccc(CN2CCN(c3ccc(NC(=O)c4ccccc4-c4ccc(C(F)(F)F)cc4)cc3)CC2)c1` [Example 66, 4′-Trifluoromethyl-biphenyl-2-carboxylic acid [4-(4-(3-acetyl-benzyl)-piperazin-1-yl)-phenyl]-amide] yielded a melting point of 181 to 183 °C.

Compound `O=C(Nc1ccc(N2CCN(Cc3ccco3)CC2)cc1)c1ccccc1-c1ccc(C(F)(F)F)cc1` [Example 67, 4′-Trifluoromethyl-biphenyl-2-carboxylic acid [4-(4-furan-2-ylmethyl-piperazin-1-yl)-phenyl]-amide] displayed a melting point of 173 to 175 °C.
